The test system of data set [1] is NCI-H1975. Kind of data set: Induction of apoptosis in human NCI-H1975 cells harboring EGFR T790M/L858R mutant assessed as early apoptotic cells at 1 nM measured after 48 hrs by Annexin-V-FITC/propidium iodide staining based flow cytometry (reference value: 0.82%). It counts as functional. A general note: Flow cytometry measures light scatter and fluorescence of single cells or particles in a stream.

Data set [2] relates to NCI-H1975. Nature of the data set: Induction of apoptosis in human NCI-H1975 cells harboring EGFR T790M/L858R mutant assessed as necrotic cells at 5 nM measured after 72 hrs by Annexin-V-FITC/propidium iodide staining based flow cytometry (reference value: 0.49%). It counts as functional.
Data set [3] concerns NCI-H1975. Nature of the data set: Induction of apoptosis in human NCI-H1975 cells harboring EGFR T790M/L858R mutant assessed as late apoptotic cells at 10 nM measured after 72 hrs by Annexin-V-FITC/propidium iodide staining based flow cytometry (reference value: 0.13%). It counts as functional.
Data set [4] can be described thus: AUC (0 to t) in Sprague-Dawley rat at 2 mg/kg, iv administered as single dose. The conditions noted are these: in vivo. More on the design: dose 2 mg/kg. It counts as ADME, organism-based.

With `C=CC(=O)Nc1cc(Nc2nccc(-c3cn(C4CC4)c4ccccc34)n2)c(OC)cc1[S+]([O-])CCN(C)C` (centres undefined), the values for the Activity with NCI-H1975 [1], in the data set on NCI-H1975 [2] and in the data set with NCI-H1975 [3] were 10.89%, 10.51% and 22.53%, respectively. The AUC(0-t) – broadly, exposure summed from dosing to a finite time, without extrapolation to infinity – in data set [4] amounted to 335 ng·h/mL.
